The target of the assay is human MGAT-2 (Homo sapiens (Human), UniProt Q3SYC2). Briefly: MGAT LCMS assay (h-MGAT LCMS). Type of assay: biochemical. The note with it: human MGAT2 membranes expressed in Sf9 cells; 100 μM 2-oleoylglycerol, 15 μM oleoyl-coenzyme A. The procedure:
The MGAT enzyme reactions were performed in Corning FALCON® 96-well polypropylene plates, in a total volume of 60 μL of 50 mM potassium phosphate buffer pH 7.4, containing a final concentration of 100 μM 2-oleoylglycerol, 15 μM oleoyl-coenzyme A and 0.0013 μg/μL human or mouse MGAT-2 or 0.0026 μg/μL rat recombinant MGAT-2 membranes expressed in Sf9 cells. Assay plates were run through a fully automated robotics system and shaken for 5 seconds every minute for a total 10 minutes. The reactions were then quenched with 120 μL of ice cold methanol containing 1 μg/mL 1,2-distearoyl-rac-glycerol as the internal standard. Plates were shaken for 2 minutes and spun down to remove protein precipitation. After the spin, samples were transferred to LC/MS compatible PCR plates. For LC/MS analysis, a ThermoFisher Surveyor pump, utilizing a Waters […]® C8, 50×2.1 mm column, was used for the chromatography of enzyme products. The buffer system consists of 0.1% formic acid in water with a mobile phase consisting 0.1% formic acid in methanol. The shallow gradient is 90-100% mobile phase in 0.2 min with a total run time of 2.3 min. The first 0.5 minutes of each injection was diverted to waste to eliminate the presence of phosphate buffer in the enzymatic reaction. The column was run at 0.6 mL/min and a temperature of 65° C. Mass spectrometry analysis of the samples was performed on a ThermoFisher Quantum Triple quad utilizing APCI (+) as the mode of ionization. Data was acquired in Single Ion Monitoring (SIM) mode analyzing Diolein=m/z 603.6 (PRODUCT) and 1,2-distearoyl-rac-glycerol (IS)=m/z 607.6. The ratio of Diolein to internal standard (Peak Area Ratio) is utilized to calculate IC50 values.
“NT” denotes “Not tested”.

Chain of human MGAT-2 (Q3SYC2 whole entry): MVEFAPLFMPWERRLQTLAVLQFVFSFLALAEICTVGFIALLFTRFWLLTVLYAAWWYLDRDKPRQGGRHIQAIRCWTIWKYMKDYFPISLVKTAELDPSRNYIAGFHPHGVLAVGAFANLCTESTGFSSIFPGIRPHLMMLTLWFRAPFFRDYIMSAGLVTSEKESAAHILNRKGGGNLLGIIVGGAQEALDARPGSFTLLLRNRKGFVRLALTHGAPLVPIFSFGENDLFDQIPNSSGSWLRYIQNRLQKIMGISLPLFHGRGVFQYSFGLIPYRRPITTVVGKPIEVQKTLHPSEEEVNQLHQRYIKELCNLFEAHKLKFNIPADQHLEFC

The term IC50 denotes the concentration that gives 50% inhibition. A lower IC50 goes with higher potency. `Cc1cnc(C2=C(c3nnn[nH]3)C(=O)N[C@@](c3ccc(OCCCC(F)(F)F)cc3)(C(F)(F)F)C2)s1` [Example 13] returned a concentration for half-maximal inhibition (IC50) of 0.0194 µM.

`O=C1N[C@@](c2ccc(OCCCC(F)(F)F)cc2F)(C(F)(F)F)CC(c2ccn(C3CCC3)n2)=C1c1nnn[nH]1` [Example 40] returned a 50% inhibitory concentration (IC50) of 0.0067 µM. This IC50 is about 2.9-fold lower than that of the molecule before.

`Cc1ccc(C2=C(C#N)C(=O)N[C@@](c3ccc(OCCCC(F)(F)F)cc3)(C(F)(F)F)C2)s1` [Example 67, (S)-4-(5-Methylthiophen-2-yl)-2-oxo-6-(4-(4,4,4-trifluorobutoxy)phenyl)-6-(trifluoromethyl)-1,2,5,6-tetrahydropyridine-3-carbonitrile] yielded an IC50 of 0.0976 µM.
